“And” between values parts separate entries of the source, which are not always exact repeats. Equal values may be shown once.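 Cultured in 96-well plates, cells were exposed to test compound for 48 hours across five concentrations. The concentration for 50% growth inhibition is given as GI50. TGI denotes the concentration required for complete inhibition of growth.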
Key:
Assay in all cases: DTP human tumour cell line panel, 48 h
[1] = system: BT-549 breast
[2] = system: SF-268 CNS
[3] = system: SF-295 CNS
[4] = system: MDA-MB-231 breast
[5] = system: RXF 393 renal
[6] = system: TK-10 renal
[7] = system: SK-MEL-2 melanoma
[8] = system: RPMI-8226 leukemia
[9] = system: HCT-15 colon
[10] = system: A498 renal

Structure (SMILES)	GI50 [1]	TGI [1]	GI50 [2]	TGI [2]	GI50 [3]	TGI [3]	GI50 [4]	TGI [4]	TGI [5]	GI50 [6]	TGI [6]	GI50 [7]	TGI [7]	GI50 [8]	TGI [8]	GI50 [9]	TGI [9]	GI50 [10]	TGI [10]	GI50 [5]
COc1nc(N)nc2nc[nH]c12	580 µM	500 µM and > 1000 µM	646 µM	500 µM and 800 µM and > 1000 µM	> 881 µM	> 1000 µM	641 µM	500 µM and > 1000 µM	489 µM and 800 µM and 914 µM	431 µM and 442 µM	500 µM and 800 µM and > 1000 µM	> 800 µM	500 µM and > 800 µM and > 853 µM	677 µM	500 µM and > 1000 µM	> 800 µM	500 µM and > 800 µM and > 1000 µM	306 µM and 335 µM	500 µM and 800 µM and 691 µM	
COc1ccc([C@@H]2[C@@H](Oc3ccccc3)C(=O)N2c2cc(OC)c(OC)c(OC)c2)cc1F	0.0342 µM	> 100 µM	0.222 µM	> 100 µM	0.0785 µM	> 100 µM	0.298 µM	> 100 µM	> 100 µM	6.52 µM	> 100 µM	0.447 µM	> 100 µM	0.207 µM	5.64 µM	0.155 µM	> 100 µM	0.0238 µM	0.0983 µM	0.0593 µM
CNS(=O)(=O)Nc1nccc(Cc2c(C)c3ccc(Oc4ncccn4)cc3oc2=O)c1F	24.2 µM and > 10 µM	> 100 µM	> 86 µM	> 100 µM	27.8 µM and > 10 µM	> 100 µM	0.549 µM and 0.313 µM	> 100 µM	> 100 µM	0.184 µM and 0.0841 µM	> 100 µM	< 0.01 µM and 0.00879 µM	> 100 µM	12.3 µM and > 9.21 µM	> 100 µM	> 25.7 µM	> 100 µM	0.0424 µM and 0.0459 µM	1.38 µM and 0.531 µM	4.99 µM and 3.02 µM
O=C1c2ccccc2-c2c1c1c(O)cccc1n2Cc1ccccc1	20.5 µM	56.1 µM	6.58 µM	37.9 µM	6.12 µM	18.4 µM	> 100 µM	> 100 µM	44.8 µM	8.74 µM	22.5 µM	39.7 µM	> 100 µM	30 µM	> 100 µM	27.5 µM	> 100 µM	6.24 µM	25 µM	11.5 µM
COc1cc2c(Oc3ccc(-c4cnc(Nc5ccc(F)cc5)n(C)c4=O)cc3F)ccnc2cc1OCCCN1CCOCC1	1.86 µM	3.49 µM	1.46 µM	3.38 µM	0.663 µM	1.99 µM	1.4 µM	2.93 µM	2.04 µM	1.94 µM	3.92 µM	1.53 µM	3.19 µM	1.84 µM	4.71 µM	1.18 µM	2.75 µM	0.95 µM	2.46 µM	0.759 µM
O=S(=O)(Nc1ccccc1)c1ccc(C2CC3(Cl)C(Cl)=C(Cl)C2(Cl)C3(Cl)Cl)cc1 (centres undefined)	2.46 µM	5.85 µM	3.8 µM	12.8 µM	2.21 µM	5.97 µM	3.44 µM	11.3 µM	3.38 µM	4.4 µM	14.6 µM	2.23 µM	4.16 µM	2.53 µM	7.28 µM	3.13 µM	10.2 µM	2.32 µM	6.29 µM	1.79 µM
O=C(O)CSc1cc(NS(=O)(=O)c2ccc(Br)cc2)c2ccccc2c1O	16.2 µM	30.5 µM	8.18 µM	23.4 µM	16 µM	30.1 µM	2.72 µM	8.08 µM	27.9 µM	20.3 µM	34.7 µM	9.92 µM	28.6 µM	5.33 µM	29.9 µM	13.3 µM	30.7 µM	18.3 µM	34.7 µM	13.8 µM
Cc1ccc(-c2nc([P+](c3ccccc3)(c3ccccc3)c3ccccc3)c(N3CCOCC3)o2)cc1	0.381 µM	5.14 µM	0.389 µM	11 µM	1.12 µM	4.35 µM	0.399 µM	4.93 µM	4.25 µM	1.44 µM	9.15 µM	0.559 µM	2.76 µM	0.251 µM	1.16 µM	3.09 µM	12.1 µM	0.881 µM	4.5 µM	0.706 µM
Cn1cc(-c2ccc3c(c2)ncn3-c2cc(NS(=O)(=O)C3CC3)cc(-c3ccc(F)cc3F)c2)cn1	4.22 µM	56.7 µM	3.01 µM	> 100 µM	8.18 µM	37.2 µM	5.61 µM	> 100 µM	8.17 µM	2.73 µM	72.7 µM	25.7 µM	61.5 µM	3.97 µM	32.2 µM	7.4 µM	> 100 µM	0.074 µM	0.542 µM	1.53 µM
O=c1c(Oc2ccc(F)cc2F)cc2cnc(NC3CCOCC3)nc2n1C1CC1	> 25 µM	> 25 µM	> 25 µM	> 25 µM	> 25 µM	> 25 µM	> 25 µM	> 25 µM	> 25 µM	19.8 µM	> 25 µM	> 25 µM	> 25 µM	> 25 µM	> 25 µM	> 25 µM	> 25 µM	2.72 µM	> 25 µM	> 17.1 µM
O=C1NC(=O)N(S(=O)(=O)c2cc(C(=O)Nc3ccc(Cl)cc3)c(Cl)cc2S)S(=O)(=O)N1	20.5 µM	45.7 µM	16.9 µM	46.6 µM	23.4 µM	43.1 µM	25.2 µM	74.5 µM	18.2 µM	23.8 µM	45.5 µM	27.7 µM	66.1 µM	17.7 µM	55.7 µM	18.9 µM	36.5 µM	15.5 µM	30.1 µM	0.67 µM
Oc1c(Br)cc(Cl)cc1C(c1cc(Cl)cc(Br)c1O)C(Cl)(Cl)Cl	3.22 µM	10.1 µM	3.61 µM	15.2 µM	1.59 µM	5.29 µM	1.97 µM	5.98 µM	8.77 µM	4.3 µM	13.3 µM	2.31 µM	5.08 µM	0.961 µM	6.47 µM	1.39 µM	9.06 µM	1.69 µM	8.24 µM	2.73 µM
